# According to patent EP0094564A2, “Azolyl-methyl oxiranes, their preparation and use as medicaments and plant protecting agents” (BASF Aktiengesellschaft, priority 1982, dated 1983):
# Key:
# Botrytis cinerea = test: Versuch 4: activity against Botrytis cinerea on paprika seedlings; type: in vivo; details: 0,05 %ige Spritzbrühe; sprayed before inoculation; assessed after 5 days; value given as 'beispielsweise'
# Source text: Paprikasämlinge der Sorte "Neusiedler Ideal Elite" wurden, nachdem sich 4 bis 5 Blätter gut entwickelt hatten, mit wäßrigen Suspensionen, die 80 % Wirkstoff und 20 % Emulgiermittel in der Trockensubstanz enthielten, tropfnaß gespritzt. Nach dem Antrocknen des Spritzbelages wurden die Pflanzen mit einer Konidienaufschwemmung des Pilzes Botrytis cenerea besprüht und bei 22 bis 24 C in eine Kammer mit hoher Luftfeuchtigkeit gestellt. Nach 5 Tagen hatte sich die Krankheit auf den unbehandelten Kontrollpflanzen so stark entwickelt, daß die entstandenen Blattnekrosen den überwiegenden Teil der Blätter bedeckten.
# Cand.alb. H = test: Candida albicans pseudomycelium/mycelium phase test, MIC; type: cell-based; details: in vitro, column H, read-out: Minimale Hemmkonzentration (MHK) Cand.alb. H
# Source text: (§1) Die Wirkung gegen Dermatophyten, Bakterien und Protozonen kann nach Methoden, wie sie beispielsweise in P. Klein, Bakteriologische Grundlagen der chemotherapeutischen Laboratoriumspraxis, Springer-Verlag Berlin, 1957, beschrieben wird, aufgezeigt werden. Die überraschende Wirkung gegenüber Hefen wurde im Pseudomyzel- und Myzelphasentest mit Candida albicans nachgewiesen (vgl. DE-OS 30 10 093). Es wurde geprüft, welche minimalen Hemmkonzentrationen (MHK-Werte) im Agardilutionstest erreicht werden. In der Tabelle 1 sind die Ergebnisse zusammengefaßt.
# [1] = test system: Weizenbraunrost (Puccinia recondita); test: Versuch 2: activity against wheat brown rust on wheat seedlings; type: in vivo; details: 0,025; 0,006; 0,0015 %ige Spritzbrühen; sprayed 24 h after inoculation; assessed after 8 days; value given as 'beispielsweise'
# Procedure: Blätter von in Töpfen gewachsenen Weizensämlingen der Sorte "Jubilar" wurden mit Sporen des Braunrostes (Puccinia recondita) bestäubt. Danach wurden die Töpfe für 24 Stunden bei 20 bis 22°C in eine Kammer mit hoher Luftfeuchtigkeit (90 bis 95 %) gestellt. Während dieser Zeit keimten die Sporen aus und die Keimschläuche drangen in das Blattgewebe ein. Die infizierten Pflanzen wurden anschließend mit wäßrigen Spritzbrühen, die 80 % Wirkstoff und 20 % Emulgiermittel in der Trockensubstanz enthielten, tropfnaß gespritzt. Nach dem Antrocknen des Spritzbelages wurden die Versuchspflanzen im Gewächshaus bei Temperaturen zwischen 20 und 22°C und 65 bis 70 % relativer Luftfeuchte aufgestellt. Nach 8 Tagen wurde das Ausmaß der Rostpilzentwicklung auf den Blättern ermittelt.
# Trichom. vag. = test: Minimal inhibitory concentration in vitro (protozoa); type: cell-based; details: read-out: Minimale Hemmkonzentration (MHK) Trichom. vag.
# Source text: as §1
# Entamoeb hist. = test: as above; type: cell-based; details: read-out: Minimale Hemmkonzentration (MHK) Entamoeb hist.
# Source text: as §1
# Epid. flocc. 157 = test: Agar dilution test, minimal inhibitory concentration in vitro; type: cell-based; details: read-out: Minimale Hemmkonzentration (MHK) Epid. flocc. 157
# Source text: as §1
# Trichoph. ment. 21 = test: as above; type: cell-based; details: read-out: Minimale Hemmkonzentration (MHK) Trichoph. ment. 21
# Source text: as §1
# E.coli muta-flor = test: as above; type: cell-based; details: Escherichia coli, read-out: Minimale Hemmkonzentration (MHK) E.coli muta-flor
# Source text: as §1
# Abs. corym. 1 = test: as above; type: cell-based; details: read-out: Minimale Hemmkonzentration (MHK) Abs. corym. 1
# Source text: as §1
# Mucor pus. 6 = test: as above; type: cell-based; details: read-out: Minimale Hemmkonzentration (MHK) Mucor pus. 6
# Source text: as §1
# Strept. faec. 8043 = test: as above; type: cell-based; details: read-out: Minimale Hemmkonzentration (MHK) Strept. faec. 8043
# Source text: as §1
# Microsp. ferrug. 5 = test: as above; type: cell-based; details: read-out: Minimale Hemmkonzentration (MHK) Microsp. ferrug. 5
# Source text: as §1
# Staph. aur. SG 511 = test: as above; type: cell-based; details: read-out: Minimale Hemmkonzentration (MHK) Staph. aur. SG 511
# Source text: as §1
# Aps.fum. 2 = test: as above; type: cell-based; details: read-out: Minimale Hemmkonzentration (MHK) Aps.fum. 2
# Source text: as §1
# Cand.alb. M = test: Candida albicans pseudomycelium/mycelium phase test, MIC (column M); type: cell-based; details: in vitro, read-out: Minimale Hemmkonzentration (MHK) Cand.alb. M
# Source text: as §1
# Trichoderma viride = test: Versuch 6: fungal growth on malt extract agar containing active ingredient; type: cell-based; design: key: 0 = kein Pilzwachstum (Pilzmyzel abgetötet); 1 = geringes Pilzwachstum (bis 1/3 der Agaroberfläche bewachsen); 3 = mittleres Pilzwachstum (bis 2/3 der Agaroberfläche bewachsen); 5 = ungehemmtes Pilzwachstum (gesamte Agaroberfläche bewachsen); details: 40 ppm in 5 % malt extract agar; 5 days at 25 °C; growth score
# Source text: (§2) Die Wirkstoffe werden in Aceton gelöst, in Mengen von 40 ppm einem verflüssigten 5 %igen Malzextraktagar zugesetzt. Der Agar wird in Petrischalen ausgegossen und nach dem Erstarren werden die fungizidhaltigen Nähragarplatten zentral mit Myzel der holzzerstörenden Pilze Coniophora puteana und Trametes versicolor, des Moderfäule und Stockflecken verursachenden Pilzes Chaetomium globosum sowie mit Sporen des grünen Holzschimmels Trichoderma viride beimpft.
# (§3) Nach fünftägiger Bebrütung der Schalen bei 25 °C wird die Entwicklung der Pilzkolonien auf dem Nährboden im Vergleich mit der Kontrolle (ohne Wirkstoff-Zusatz) beurteilt: • 0 = kein Pilzwachstum (Pilzmyzel abgetötet) • 1 = geringes Pilzwachstum (bis 1/3 der Agaroberfläche bewachsen) • 3 = mittleres Pilzwachstum (bis 2/3 der Agaroberfläche bewachsen) • 5 = ungehemmtes Pilzwachstum (gesamte Agaroberfläche bewachsen)
# Trametes versicolor = test: as above; type: cell-based; design: key: 0 = kein Pilzwachstum (Pilzmyzel abgetötet); 1 = geringes Pilzwachstum (bis 1/3 der Agaroberfläche bewachsen); 3 = mittleres Pilzwachstum (bis 2/3 der Agaroberfläche bewachsen); 5 = ungehemmtes Pilzwachstum (gesamte Agaroberfläche bewachsen); details: 40 ppm in 5 % malt extract agar; 5 days at 25 °C; growth score
# Source text: as §2, §3
# Chaetomium globosum = test: as above; type: cell-based; design: key: 0 = kein Pilzwachstum (Pilzmyzel abgetötet); 1 = geringes Pilzwachstum (bis 1/3 der Agaroberfläche bewachsen); 3 = mittleres Pilzwachstum (bis 2/3 der Agaroberfläche bewachsen); 5 = ungehemmtes Pilzwachstum (gesamte Agaroberfläche bewachsen); details: 40 ppm in 5 % malt extract agar; 5 days at 25 °C; growth score
# Source text: as §2, §3
# Coniophora puteana = test: as above; type: cell-based; design: key: 0 = kein Pilzwachstum (Pilzmyzel abgetötet); 1 = geringes Pilzwachstum (bis 1/3 der Agaroberfläche bewachsen); 3 = mittleres Pilzwachstum (bis 2/3 der Agaroberfläche bewachsen); 5 = ungehemmtes Pilzwachstum (gesamte Agaroberfläche bewachsen); details: 40 ppm in 5 % malt extract agar; 5 days at 25 °C; growth score
# Source text: as §2, §3
# Pullularia pullulans = test: Versuch 5: filter paper disc inhibition zone test on malt extract agar; type: cell-based; details: 72 h, discs soaked with 0,2 ml of 200 ppm solution, 3 days at 22 to 24 °C, read-out: Wirksamkeit gegen Pullularia pullulans
# Procedure: Filtrierpäpierscheiben mit einem Durchmesser von 13 mm und einer Stärke von 1 mm werden mit 0,2 ml Lösungen getränkt, die jeweils 200 Teile Wirkstoff je Million Teile Lösung (ppm) enthalten. Die Scheiben werden dann auf einem 2 %igen Malzextraktagar in Petrischalen gelegt, die zuvor getrennt mit Sporen des holzverfärbenden Pilzes Pullularia pullulans beimpft wurden. Anschließend werden die Schalen 3 Tage lang bei 22 bis 24 °C bebrütet. Nach dieser Zeit hat sich der Pilz in den Kontrollschalen sehr gut entwickelt.
# Die fungizide Wirksamkeit der Wirkstoffe wird anhand der um die Filtrierpapierscheiben herum entstandenen pilzfreien Zonen (Hemmhöfe) wie folgt beurteilt: […]
SMILES,MIC (Cand.alb. H),MIC (Trichom. vag.),MIC (Entamoeb hist.),MIC (Epid. flocc. 157),MIC (Trichoph. ment. 21),MIC (E.coli muta-flor),MIC (Abs. corym. 1),MIC (Mucor pus. 6),MIC (Strept. faec. 8043),MIC (Microsp. ferrug. 5),MIC (Staph. aur. SG 511),MIC (Aps.fum. 2),MIC (Cand.alb. M),fungizide Wirkung gegen Botrytis cinerea an Paprika (Botrytis cinerea),fungizide Wirkung gegen Weizenbraunrost [1],Wirksamkeit gegen Trichoderma viride (Trichoderma viride),Wirksamkeit gegen Trametes versicolor (Trametes versicolor),Wirksamkeit gegen Chaetomium globosum (Chaetomium globosum),Wirksamkeit gegen Coniophora puteana (Coniophora puteana),zone of inhibition at 200 ppm (Pullularia pullulans)
"CC1(Cn2cncn2)OC1c1ccc(Cl)cc1Cl (single isomer, unassigned) [Beispiel 22]",–,–,–,–,–,–,–,–,–,–,–,–,–,–,–,1,0,1,1,> 6 mm
"Fc1ccc(C2OC2(Cn2cncn2)c2ccc(Cl)cc2)cc1 (single isomer, unassigned) [Beispiel 50]",–,–,–,–,–,–,–,–,–,–,–,–,–,–,–,0,0,0,0,> 6 mm
"CC(C)(C)c1ccc(C2OC2(Cn2ccnc2)c2ccc(Cl)cc2Cl)cc1 (single isomer, unassigned) [Beispiel 21]",2 mg/L,> 16 mg/L,> 1 mg/L,16 mg/L,16 mg/L,> 128 mg/L,16 mg/L,8 mg/L,2 mg/L,8 mg/L,8 mg/L,> 128 mg/L,1 mg/L,–,–,–,–,–,–,–

# Second part, led by results:
MIC (Cand.alb. H),MIC (Trichom. vag.),MIC (Entamoeb hist.),MIC (Epid. flocc. 157),MIC (Trichoph. ment. 21),MIC (E.coli muta-flor),MIC (Abs. corym. 1),MIC (Mucor pus. 6),MIC (Strept. faec. 8043),MIC (Microsp. ferrug. 5),MIC (Staph. aur. SG 511),MIC (Aps.fum. 2),MIC (Cand.alb. M),SMILES,fungizide Wirkung gegen Botrytis cinerea an Paprika (Botrytis cinerea),fungizide Wirkung gegen Weizenbraunrost [1],Wirksamkeit gegen Trichoderma viride (Trichoderma viride),Wirksamkeit gegen Trametes versicolor (Trametes versicolor),Wirksamkeit gegen Chaetomium globosum (Chaetomium globosum),Wirksamkeit gegen Coniophora puteana (Coniophora puteana),zone of inhibition at 200 ppm (Pullularia pullulans)
64 mg/L,> 16 mg/L,> 1 mg/L,8 mg/L,8 mg/L,> 128 mg/L,16 mg/L,8 mg/L,> 128 mg/L,2 mg/L,> 128 mg/L,> 128 mg/L,2 mg/L,"COc1cccc(C2OC2(Cn2cncn2)c2ccc(Cl)cc2)c1 (single isomer, unassigned) [Beispiel 30]",97%,100%,–,–,–,–,–
64 mg/L,> 16 mg/L,> 1 mg/L,1 mg/L,1 mg/L,> 128 mg/L,2 mg/L,2 mg/L,4 mg/L,0.25 mg/L,8 mg/L,16 mg/L,0.0156 mg/L,"Clc1ccc(C2(Cn3ccnc3)OC2c2ccc(Br)cc2)cc1 (single isomer, unassigned) [Beispiel 47]",–,–,–,–,–,–,–
